Series [1] deals with patients with multi-infarct dementia. The note with it: cited from earlier work.
The subject of series [2] is elderly patients with a diagnosis of vascular depression currently being treated with an SSRI and/or SNRI. Put plainly: Case studies of pentoxifylline and propentofylline add-on treatment of vascular depression (HDRS). The series is classed as in vivo, human. Particulars: add-on to existing SSRI and/or SNRI. The method, then: These case studies investigate the effects of pentoxifylline and propentofylline in one or more elderly patients (>60 years of age) with a diagnosis of vascular depression and who are currently being treated with an SSRI and/or SNRI.
Patients are evaluated at baseline and at regular intervals for a period of months. They are evaluated according to the Hamilton Depressive Rating Scale (HDRS; Hamilton, J. Neurol. Neurosurg. Psychiatry 23:56-62 (1960)).
In one group, pentoxifylline is administered orally in a dose of 400 mg three times a day to augment their SSRI and/or SNRI treatment regimen. In another group, propentofylline is administered orally in a dose of 200 mg three times a day to augment their SSRI and/or SNRI treatment regimen.

In series [3] the test system is elderly patients with a diagnosis of vascular depression. The experiment in a line: Case studies of pentoxifylline and propentofylline treatment of vascular depression (HDRS). The series is classed as in vivo, human. The note with it: oral monotherapy. Here is the method:
Patients are evaluated at baseline and at regular intervals for a period of months. They are evaluated according to the Hamilton Depressive Rating Scale (HDRS; Hamilton, J. Neurol. Neurosurg. Psychiatry 23:56-62 (1960)). Patients are excluded if their HDRS is ≦15.
In one group, pentoxifylline is administered orally in a dose of 400 mg three times a day. In another group, propentofylline is administered orally in a dose of 200 mg three times a day.

The conditions of series [4]: in vivo; cited from earlier work.

Structures are written as SMILES.

On to `CC(=O)CCCCn1c(=O)c2c(ncn2C)n(C)c1=O` [pentoxifylline, 1-(5-oxohexyl)-3,7-dimethylxanthine], for which the “intellectual and cognitive function” value in series [1] was “improve”. Further, the tolerability entry in series [2] and in series [3] was “well tolerated” in each case.
`CC(O)CCCCn1c(=O)c2c(ncn2C)n(C)c1=O` (stereo not drawn) [1(5-hydroxyhexyl)-3,7-dimethylxanthine]: the cerebral blood flow entry in series [4] is recorded as “increasing cerebral blood flow”.
Consider `CCCn1cnc2c1c(=O)n(CCCCC(C)=O)c(=O)n2C` [propentofylline, 1-(5-oxohexyl)-3-methyl-7-n-propylxanthine], for which the tolerability result in series [2] and in series [3] was “well tolerated” in each case.

These data come from patent US20090258860A1, “XANTHINE DERIVATIVES FOR THE TREATMENT OF VASCULAR DEPRESSION” (Duke University, priority 2006, published 2009).
